Test results taken from patent US20260209218A1, “3-PHENYLQUINAZOLINONES AS NOVEL ANTI-CANCER THERAPY” (HELMHOLTZ ZENTRUM MÜNCHEN - DEUTSCHES FORSCHUNGSZENTRUM FÜR …, priority 2022, published 2026).

The compounds below were run against T1, hFSP1 (Homo sapiens, UniProt Q9BRQ8) (assay: Dose-response of screening hits, cell survival by Aquabluer in hFSP1 GPX4 KO cells). Conditions: FSP1 overexpressing cells lacking GPX4.
T1 construct: expressed in transfected cells; host or cells: Gpx4 KO isogenic fibroblasts (Pfa1, mouse) overexpressing hFSP1
T1 sequence (Q9BRQ8 1-373): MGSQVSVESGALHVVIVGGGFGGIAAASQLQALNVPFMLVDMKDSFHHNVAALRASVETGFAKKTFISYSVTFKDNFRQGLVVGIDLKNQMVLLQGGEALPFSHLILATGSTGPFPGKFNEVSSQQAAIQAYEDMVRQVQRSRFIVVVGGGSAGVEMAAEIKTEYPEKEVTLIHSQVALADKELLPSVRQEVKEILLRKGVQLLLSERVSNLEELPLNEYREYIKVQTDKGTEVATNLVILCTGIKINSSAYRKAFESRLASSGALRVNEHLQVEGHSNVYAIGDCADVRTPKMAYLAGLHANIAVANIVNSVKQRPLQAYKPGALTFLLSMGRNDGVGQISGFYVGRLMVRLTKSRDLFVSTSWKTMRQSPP
Type: cell-based
Procedure: To identify new small molecule inhibitors that induce ferroptosis in FSP1 overexpressing cells lacking GPX4, hFSP1 GPX4 KO as well as FSP1 GPX4 wild type (WT) isogenic fibroblasts were screened using a subtractive high throughput screening (HTS) approach. As such, both cell lines were plated in parallel and screened against HMGU libraries at a fixed concentration of 10 μM. Cell survival was evaluated using the LIVE/DEAD assay Aquabluer. The percentage (%) of viable cells was determined for both wild type (WT) and knockout (KO) cell lines. Hits were considered as compounds that induce ferroptosis in KO but not in WT cells. Subsequently, positive hits were assayed in a dose-response manner to establish EC50 values of respective compounds (see Table 2).

`CCOc1ccc(CC(=O)Nc2ccc(-n3c(C)nc4ccccc4c3=O)cc2)cc1` [Compound 2] and `COc1ccc(CC(=O)Nc2ccc(-n3c(C)nc4ccccc4c3=O)cc2)cc1` [Compound 4] cannot be ordered by EC50: over 1000 nM for the first, over 1000 nM for the second.

Going from `COc1cc(C(=O)Nc2ccc(-n3c(C)nc4ccccc4c3=O)cc2)cc(OC)c1OC` [Compound 3] to `COc1cc(C(=O)Nc2cccc(-n3c(C)nc4ccccc4c3=O)c2)cc(OC)c1OC` [Compound 6], the EC50 falls from over 1000 nM to under 1000 nM. The second is the more potent here.

`COc1ccc(CC(=O)Nc2cccc(-n3c(C)nc4ccccc4c3=O)c2)cc1` [Compound 5] and `COc1ccc(CC(=O)Nc2ccc(-n3c(C)nc4ccccc4c3=O)cc2C)cc1` [Compound 25] cannot be ordered by EC50: over 1000 nM for the first, over 1000 nM for the second.

`COc1ccc(CC(=O)Nc2ccc(-n3c(C)nc4ccccc4c3=O)cc2)cc1Cl` [Compound 7] and `COc1ccc(CC(=O)Nc2ccc(-n3c(C)nc4ccccc4c3=O)cc2)c(Cl)c1` [Compound 31] cannot be ordered by EC50: under 1000 nM for the first, under 1000 nM for the second.

First: COc1cccc(CC(=O)Nc2ccc(-n3c(C)nc4ccccc4c3=O)cc2)c1 [Compound 8]
Second: Cc1cccc(CC(=O)Nc2ccc(-n3c(C)nc4ccccc4c3=O)cc2)c1 [Compound 15]
The EC50 of the first is higher: over 1000 nM for the first, under 1000 nM for the second. The second is the more potent here.

`COc1cc(CC(=O)Nc2ccc(-n3c(C)nc4ccccc4c3=O)cc2C)cc(OC)c1OC` [Compound 9] and `COc1ccc(CC(=O)Nc2ccc(-n3c(C)nc4ccccc4c3=O)cc2C)cc1Cl` [Compound 33] cannot be ordered by EC50: under 1000 nM for the first, under 1000 nM for the second.

`CCOc1cc(C(=O)Nc2ccc(-n3c(C)nc4ccccc4c3=O)cc2)cc(OCC)c1OCC` [Compound 10] and `COc1cc(CC(=O)Nc2ccc(-n3c(CF)nc4ccccc4c3=O)cc2)cc(OC)c1OC` [Compound 42] cannot be ordered by EC50: under 1000 nM for the first, under 1000 nM for the second.

`COc1ccc(CC(=O)Nc2ccc3nc(C)n(-c4ccc(F)cc4)c(=O)c3c2)cc1OC` [Compound 11] and `COc1cc(CC(=O)Nc2ccc(-n3c(C)nc4ccncc4c3=O)cc2)cc(OC)c1OC` [Compound 50] cannot be ordered by EC50: over 1000 nM for the first, over 1000 nM for the second.

Compared with `CCOc1ccc(CC(=O)Nc2ccc(-n3c(C)nc4ccccc4c3=O)cc2C)cc1` [Compound 12], `Cc1ccc(CC(=O)Nc2ccc(-n3c(C)nc4ccccc4c3=O)cc2C)cc1` [Compound 21] is higher in EC50: under 1000 nM for the first, over 1000 nM for the second.

First: Cc1ccc(CC(=O)Nc2ccc(-n3c(C)nc4ccccc4c3=O)cc2)cc1 [Compound 14]
Second: Cc1nc2ccccc2c(=O)n1-c1ccc(NC(=O)Cc2ccc(F)cc2)cc1 [Compound 17]
The EC50 of the first is lower: under 1000 nM for the first, over 1000 nM for the second. The first is the more potent here.

`Cc1ccccc1CC(=O)Nc1ccc(-n2c(C)nc3ccccc3c2=O)cc1` [Compound 16] and `Cc1nc2ccccc2c(=O)n1-c1ccc(NC(=O)Cc2ccccc2Cl)cc1` [Compound 20] cannot be ordered by EC50: over 1000 nM for the first, over 1000 nM for the second.

`Cc1nc2ccccc2c(=O)n1-c1ccc(NC(=O)Cc2ccc(Cl)cc2)cc1` [Compound 18] and `Cc1cc(-n2c(C)nc3ccccc3c2=O)ccc1NC(=O)Cc1ccc(Cl)cc1` [Compound 26] cannot be ordered by EC50: under 1000 nM for the first, under 1000 nM for the second.

Going from `CCC(C(=O)Nc1ccc(-n2c(C)nc3ccccc3c2=O)cc1)c1ccccc1` (stereo not drawn) [Compound 19] to `Cc1nc2ccccc2c(=O)n1-c1ccc(NS(=O)(=O)Cc2ccccc2)cc1` [Compound 72], the EC50 rises from under 1000 nM to over 1000 nM.

`Cc1cccc(CC(=O)Nc2ccc(-n3c(C)nc4ccccc4c3=O)cc2C)c1` [Compound 22] and `COc1cccc(CC(=O)Nc2ccc(-n3c(C)nc4ccccc4c3=O)cc2C)c1` [Compound 28] cannot be ordered by EC50: over 1000 nM for the first, over 1000 nM for the second.

`Cc1ccccc1CC(=O)Nc1ccc(-n2c(C)nc3ccccc3c2=O)cc1C` [Compound 23] and `Cc1cc(-n2c(C)nc3ccccc3c2=O)ccc1NC(=O)Cc1ccccc1F` [Compound 29] cannot be ordered by EC50: over 1000 nM for the first, over 1000 nM for the second.

Compared with `Cc1cc(-n2c(C)nc3ccccc3c2=O)ccc1NC(=O)Cc1ccc(F)cc1` [Compound 24], `Cc1cc(-n2c(C)nc3ccccc3c2=O)ccc1NC(=O)Cc1c(F)cccc1Cl` [Compound 32] is lower in EC50: over 1000 nM for the first, under 1000 nM for the second.

`Cc1nc2ccccc2c(=O)n1-c1ccc(NC(=O)Cc2c(F)cccc2Cl)cc1` [Compound 27] and `Cc1nc2ccccc2c(=O)n1-c1ccc(NC(=O)Cc2ccc3c(c2)CCC3)cc1` [Compound 64] cannot be ordered by EC50: under 1000 nM for the first, under 100 nM for the second.

Compared with `Cc1cc(-n2c(C)nc3ccccc3c2=O)ccc1NC(=O)Cc1ccccc1Cl` [Compound 30], `COc1ccc(CC(=O)Nc2ccc(-n3c(C)nc4ccccc4c3=O)cc2C)c(Cl)c1` [Compound 34] is lower in EC50: over 1000 nM for the first, under 1000 nM for the second. The second is the more potent here.

Compared with `COc1cc(CC(=O)Nc2ccc(-n3c(C(F)(F)F)nc4ccccc4c3=O)cc2)cc(OC)c1OC` [Compound 40], `COc1cc(CC(=O)Nc2ccc(-n3c(C(F)F)nc4ccccc4c3=O)cc2)cc(OC)c1OC` [Compound 41] is higher in EC50: under 1000 nM for the first, over 1000 nM for the second.

Going from `COc1cc(CC(=O)Nc2ccc(-n3c(C)nc4cc(F)c(F)cc4c3=O)cc2)cc(OC)c1OC` [Compound 46] to `COc1cc(CC(=O)Nc2ccc(-n3c(C)nc4cnccc4c3=O)cc2)cc(OC)c1OC` [Compound 49], the EC50 rises from under 100 nM to over 1000 nM.

`COc1cc(CC(=O)Nc2cnc(-n3c(C)nc4ccccc4c3=O)cn2)cc(OC)c1OC` [Compound 63] and `COc1cc(CC(=O)Nc2ccc(-n3c(CO)nc4ccccc4c3=O)cc2)cc(OC)c1OC` [Compound 71] cannot be ordered by EC50: over 1000 nM for the first, over 1000 nM for the second.

First: COc1cc(CC(=O)Nc2ccc(-n3c(C)nc4sccc4c3=O)cc2)cc(OC)c1OC [Compound 69]
Second: Cc1cc(CC(=O)Nc2ccc(-n3c(C)nc4cc(F)c(F)cc4c3=O)cc2)cc(C)n1 [Compound 85]
The EC50 of the first is lower: under 1000 nM for the first, over 1000 nM for the second.

`Cc1nc2ccccc2c(=O)n1-c1ccc(N(C)S(=O)(=O)Cc2ccccc2)cc1` [Compound 73] and `Cc1nc2cc(F)c(F)cc2c(=O)n1-c1ccc(NC(=O)Cc2cccnc2)cc1` [Compound 84] cannot be ordered by EC50: over 1000 nM for the first, over 1000 nM for the second.

`Cc1cc(CC(=O)Nc2ccc(-n3c(C)nc4cc(F)c(F)cc4c3=O)cc2)cc(C)c1C` [Compound 75] and `Cc1nc2cc(F)c(F)cc2c(=O)n1-c1ccc(NC(=O)Cc2cc(F)c(F)c(F)c2)cc1` [Compound 76] cannot be ordered by EC50: under 100 nM for the first, under 1000 nM for the second.

Compared with `Cc1nc2cc(F)c(F)cc2c(=O)n1-c1ccc(NC(=O)Cc2ccc3c(c2)CCC3)cc1` [Compound 77], `Cc1nc2cc(F)c(F)cc2c(=O)n1-c1ccc(NC(=O)Cc2ccccn2)cc1` [Compound 83] is higher in EC50: under 100 nM for the first, over 1000 nM for the second. The first is the more potent here.

`Cc1nc2cc(F)c(F)cc2c(=O)n1-c1ccc(NC(=O)Cc2cc(C(F)(F)F)cc(C(F)(F)F)c2)cc1` [Compound 86] was tested, and the EC50 was under 100 nM.
